Blank lines part the entries; values can stand above or below the compound they belong to.
Columns and labels:
[1] = extended due to protein binding; human body; cited from earlier work
[2] = T3 compared with T4; cited from earlier work
[3] = Case report: oral thyroid hormone regimens in one subject (Sam) after radioactive iodine ablation for Grave's disease; format: in vivo, human
Procedure: The subject (Sam), of this case report, was treated with radioactive iodine ablation with a relatively low dose. Prior to diagnosis of Grave's disease, Sam was never known to have free T4 levels above median, and had always maintained the same weight +/−3 lbs beyond the age of 18.
Over the next several years, attempting to ameliorate symptoms, Sam attempted to treat the hypothyroid state with the following means: 0.175 mg of T4 OD, resulting in palpitations, anxiety, stiffness, chest tightness, insomnia, sclerotic skin changes, sweating and heat intolerance within 6 months of initiating therapy. The severity of the symptoms required Sam to return to return to 0.15 mg OD of T4 within 1 week of experiencing the symptoms—remaining at that dose for 6 weeks. […] This was followed by an attempt to treat with: 0.125 mg of T4 with 0.005 mg of T3 OD, resulting in palpitations, anxiety, stiffness, chest tightness, insomnia, sclerotic skin changes, sweating and heat intolerance within 3 weeks of initiating therapy. The severity of the symptoms required Sam to return to 0.15 mg OD of T4 within 2 days of experiencing these symptoms—remaining at that dose for 6 weeks with resolution of the adrenergic symptoms. This was followed by an attempt to treat with: 0.035 mg of T3 OD, resulting in palpitations, anxiety, stiffness, chest tightness, insomnia, sclerotic skin changes, sweating and heat intolerance within 1 week of initiating therapy. The severity of the symptoms required Sam to return to 0.15 mg OD of T4 within 1 day of experiencing these symptoms—remaining at that dose for 6 weeks with resolution of the adrenergic symptoms. This was followed by an attempt to treat with: 0.005 mg of T3 q3:25hours, resulting in palpitations, anxiety, stiffness, chest tightness, insomnia, sclerotic skin changes, sweating and heat intolerance within 1 week of initiating therapy. The severity of the symptoms required Sam to return to 0.15 mg OD of T4 within 1 day of experiencing symptoms—remaining at that dose for many years, with continued nasal congestion and dysphoria.
Then the symptoms all stopped. […] Sam continued this dose for several months. […] Dysphoria and nasal congestion were improved over that which was present with once daily dosing, but still remained present, so Sam attempted to treat with the following: 0.075 mg of T4 q6hours, resulting in dysphoria, nasal congestion, and mild to moderate palpitations, anxiety, stiffness, chest tightness, insomnia, sweating and heat intolerance for 2 days, then the symptoms stopped, until Sam changed treatment to: 0.05 mg of T4 q4hours, resulting in dysphoria, nasal congestion, and mild palpitations, anxiety, stiffness, chest tightness, insomnia, sweating and heat intolerance for 2 days, then the symptoms stopped, with an even greater sense of well being than had been experienced on previous treatment regimes, but Sam further increased the dose to: 0.05 mg of T4 q3hrous, resulting in dysphoria, nasal congestion, and mild palpitations, anxiety, stiffness, chest tightness, insomnia, sclerotic skin changes, sweating and heat intolerance for 3 weeks, then the symptoms stopped. Sam remained on this dose for a period of approximately 3 years. […] Weight loss of 40 lbs (with a resulting body fat of 26% by electrical impedance, and lean mass of 100 lbs.) over the first 15 months occurred followed by weight gain of 15 lbs over the next 15 months (with a resulting body fat of 28% by electrical impedance, and lean mass of 108 lbs.). A reduced incidence and duration of common colds was noted, while at steady state over the 3 year period. On one occasion, when the expiry date of T4 administered was several months nearer to the time of administration, than that of T4 typically administered by Sam, within one day, onset of dysphoria, nasal congestion, palpitations, insomnia, anorexia, night sweats, cold sweats, cold intolerance, weakness and the sensation of weight loss occurred; the symptoms resolved within three days. […]

[4] = test system: Thyroid Binding Globulin, Transthyretin and Albumin; conditions: cited from earlier work; for bound within the blood stream (protein binding): bound by Thyroid Binding Globulin, Transthyretin and Albumin
[5] = 0.05 mg of T4 q3hrous, after the first 15 months
[6] = 0.05 mg of T4 q3hrous, after the next 15 months
[7] = 0.05 mg of T4 q3hrous, at 2.7 years
[8] = dose reduced to 0.05 mg of T4 q4hours, within the first 2 weeks

Structure (SMILES): N[C@@H](Cc1cc(I)c(Oc2ccc(O)c(I)c2)c(I)c1)C(=O)O [T3, 3,5,3′ triiodo-L-thyronine]
biological half-life [1]: approximately 1 days
stability (iodine atoms removed by hydrolysis) [2]: more unstable
time to palpitations, anxiety, stiffness, chest tightness, insomnia, sclerotic skin changes, sweating and heat intolerance after initiating therapy ([3]; 0.005 mg of T3 q3:25hours): ≤ 1 week
time to palpitations, anxiety, stiffness, chest tightness, insomnia, sclerotic skin changes, sweating and heat intolerance after initiating therapy ([3]; 0.035 mg of T3 OD): ≤ 1 week
bound within the blood stream (protein binding) [4]: 99.6%

duration of dysphoria, nasal congestion and mild adrenergic symptoms ([3]; 0.05 mg of T4 q3hrous): 3 weeks
Free T4 concentration, gradual decrease ([3]; 0.05 mg of T4 q3hrous, approximately 3 years, remained far above normal): 15%
blood glucose [3, 7]: normal blood glucose
serum calcium [3, 7]: slightly above the upper limit of normal
duration of dysphoria, nasal congestion and mild adrenergic symptoms ([3]; 0.05 mg of T4 q4hours (first time)): 2 days
duration of dysphoria, nasal congestion and mild to moderate adrenergic symptoms ([3]; 0.075 mg of T4 q6hours): 2 days
duration of dysphoria, nasal congestion and mild to moderate adrenergic symptoms ([3]; 0.088 mg of T4 q8hours): three weeks
T4 concentrations ([3]; 0.088 mg of T4 q8hours, continued for several months): higher than normal range
duration of dysphoria, nasal congestion and mild to moderate adrenergic symptoms ([3]; 0.1 mg of T4 q8hours): three weeks
change in weight (mean, persistent) ([3]; 0.125 mg OD of T4, following several months of treatment): 5 lbs
free T4 ([3]; 0.175 mg of T4 OD, in the 6th month): free T4 rose
free T4 levels ([3]; T4 titrated to doses ranging from 0.1 mg OD to 0.25 mg OD): 28 pmol/L
free T4 rise [3, 8]: 22%
Structure (SMILES): N[C@@H](Cc1cc(I)c(Oc2cc(I)c(O)c(I)c2)c(I)c1)C(=O)O [T4, 3,5,3′,5′ tetraiodo-L-thyronine]
body fat by electrical impedance [3, 5]: 26%
lean mass [3, 5]: 100 lbs
body fat by electrical impedance [3, 6]: 28%
lean mass [3, 6]: 108 lbs
EKG heart rate (normal sinus rhythm) [3, 7]: 71 beats per minute
lipid profile [3, 7]: exceptional lipid profile
weight loss ([3]; 0.05 mg of T4 q3hrous, over the first 15 months): 40 lbs
weight gain ([3]; 0.05 mg of T4 q3hrous, over the next 15 months): 15 lbs
weight loss ([3]; 0.075 mg of T4 q8hours): 2-3 pounds
effect on previous symptoms (weight gain, body fat increase, insomnia, anorexia, night sweats, cold intolerance, weakness etc.) ([3]; 0.088 mg of T4 q8hours): resolution of the previous symptoms within one week
weight gain ([3]; 0.1 mg of T4 q8hours): 2-3 pounds
time to palpitations, anxiety, stiffness, chest tightness, insomnia, sclerotic skin changes, sweating and heat intolerance after initiating therapy ([3]; 0.175 mg of T4 OD): ≤ 6 months
duration of dysphoria, nasal congestion, palpitations, insomnia, anorexia, night sweats, cold intolerance, weakness etc. ([3]; dose reduced to 0.05 mg of T4 q4hours): 8 weeks
weight loss [3, 8]: 2-3 lbs
bound more tightly than T3 ([4]; T4 relative to T3): roughly 10 times
bound within the blood stream (protein binding) [4]: 99.96%

From patent US20120190748A1, “GREATER UTILITY WITH THYROID HORMONE” (priority 2009, published 2012)
